Source: US7960415B2, “Caspase inhibitors and uses thereof” (Vertex Pharmaceutical Incoporated, priority 2003, dated 2011)

Tests used:
Jurkat E6.1 cells = assay: Anti-Fas induced apoptosis assay; type: cell-based; settings: Homo sapiens, anti-Fas antibody CH-11 10 ng/ml, 16-18 hrs, DNA fragmentation
From the text: Cellular apoptosis may be induced by the binding of Fas ligand (FasL) to its receptor, CD95 (Fas). CD95 is one of a family of related receptors, known as death receptors, which can trigger apoptosis in cells via activation of the caspase enzyme cascade. The process is initiated by the binding of the adapter molecule FADD/MORT-1 to the cytoplasmic domain of the CD-95 receptor-ligand complex. Caspase-8 then binds FADD and becomes activated, initiating a cascade of events that involve the activation of downstream caspases and subsequent cellular apoptosis. Apoptosis can also be induced in cells expressing CD95 e.g., the Jurkat E6.1 T cell lymphoma cell line, using an antibody, rather than FasL, to crosslink the cell surface CD95. Anti-Fas-induced apoptosis is also triggered via the activation of caspase-8. This provides the basis of a cell based assay to screen compounds for inhibition of the caspase-8-mediated apoptotic pathway.
Jurkat E6.1 cells are cultured in complete medium consisting of RPMI-1640 (Sigma No)+10% foetal calf serum (Gibco BRL No. 10099-141)+2 mM L-glutamine (Sigma No. G-7513). The cells are harvested in log phase of growth. 100 ml of cells at 5-8×10^5 cells/ml are transferred to sterile 50 ml Falcon centrifuge tubes and centrifuged for 5 minutes at 100×g at room temperature. The supernatant is removed and the combined cell pellets resuspended in 25 ml of complete medium. The cells are counted and the density adjusted to 2×10^6 cells/ml with complete medium.
The test compound is dissolved in dimethyl sulfoxide (DMSO)(Sigma No. D-2650) to give a 100 mM stock solution. This is diluted to 400 μM in complete medium, then serially diluted in a 96-well plate prior to addition to the cell assay plate.
100 μl of the cell suspension ([…]) is added to each well of a sterile 96-well round-bottomed cluster plate (Costar No. 3790). 50 μl of compound solution at the appropriate dilution and 50 μl of anti-Fas antibody, clone CH-11 (Upstate, Cat No. 1 544 675) at a final concentration of 10 ng/ml, are added to the wells. Control wells are set up minus antibody and minus compound but with a serial dilution of DMSO as vehicle control. The plates are incubated for 16-18 hrs at 37° C. in 5% CO2 and 95% humidity.
Apoptosis of the cells is measured by the quantitation of DNA fragmentation using a ‘Cell Death Detection Assay’ from Roche diagnostics, No. 1544 675. After incubation for 16-18 hrs the assay plates are centrifuged at 100×g at room temperature for 5 minutes. 150 μl of the supernatant are removed and replaced by 150 μl of fresh complete medium. The cells are then harvested and 200 μl of the lysis buffer supplied in the assay kit are added to each well. The cells are triturated to ensure complete lysis and incubated for 30 minutes at 4° C. The plates are then centrifuged at 1900×g for 10 minutes and the supernatants diluted 1:20 in the incubation buffer provided. 100 μl of this solution is then assayed according to the manufacturer's instructions supplied with the kit. OD405 nm is measured 20 minutes after addition of the final substrate in a SPECTRAmax Plus plate reader (Molecular Devices). OD405 nm is plotted versus compound concentration and the IC50 values for the compounds are calculated using the curve-fitting program SOFTmax Pro (Molecular Devices) using the four parameter fit option.

[1] = system: IL-1β secretion from human whole blood; assay: Inhibition of IL-1β secretion from whole blood; type: cell-based; settings: human whole blood diluted 1:2, LPS 5 ng/ml, 18 hours, ELISA
Procedure: Human blood is freshly drawn from healthy donors and diluted 1:2 in PBS. To 500 μl of diluted blood […] of prediluted test compound in RPMI medium and […] LPS (5 ng/ml final concentration on the plate) are added (LPS, Serotype 0111:B4, Sigma L3012). After stimulation for 18 hours supernatants are collected and assayed for IL-1β levels using the appropriate ELISA kit (R&D systems).

rat cortical neurons = assay: Hypoxia-induced apoptosis of rat cortical neurons; type: cell-based, Wistar rat; settings: Cortical neurone, 95% N2/5% CO2, Cell Death Detection ELISA (DNA fragmentation)
Procedure: Cortical neurons are dissociated from Wistar rat embryos (E17) by a modification of the procedure of Rogers et al. 1997, Brain Res. Bulletin, 44:131. Briefly, cerebral cortices are isolated aseptically from 15-20 Wistar rat embryos. A cell suspension is prepared by mincing the cerebral cortices and digesting them with papain. Cells are washed with ovomucoid enzyme inhibitor and DNaseI and plated onto Poly-D lysine coated plates in high glucose DMEM containing 10% heat-inactivated fetal calf serum, L-glutamine, penicillin and streptomycin. The yield of neurons is […] per embryo and they are 80-90% viable as assessed by Trypan blue exclusion.
The neurons are cultured in complete medium at 37° C. in a normal atmosphere for 48 hours prior to the hypoxia experiments. For hypoxia, the normal cell medium is replaced by oxygen-depleted serum-free medium. Cells are incubated in an atmosphere of 95% N2/5% CO2 for various lengths of time. Compounds are dissolved in DMSO at 100 mM then diluted in medium and added to the culture from time=0. The level of apoptosis is measured using a Cell Death Detection ELISA kit (Roche) which detects DNA fragmentation. Plates are read at 405 nm. Controls included cells cultured in aerobic conditions in serum-containing medium (+serum) and cells cultured in aerobic conditions in serum-deprived medium (−serum).

Structure (SMILES) | IC50 (Jurkat E6.1 cells) [nM] | IC50 [1] [nM] | IC50 (rat cortical neurons) [nM]
CC[C@@H](C(=O)N[C@@H](CC(=O)O)C(=O)COc1c(F)c(F)cc(F)c1F)n1cccc(NC(=O)c2ccco2)c1=O [Compound 7, (S,S)-3-(2-{3-[(Furan-2-carbonyl)-amino]-2-oxo-2H-pyridin-1-yl}-butyrylamino)-4-oxo-5-(2,3,5,6-tetrafluoro-phenoxy)-pentanoic acid] | < 500 | < 500 | 1000 to 10000
CC[C@@H](C(=O)N[C@@H](CC(=O)O)C(=O)COc1c(F)c(F)cc(F)c1F)n1cccc(NC(=O)C2CC2)c1=O [Compound 4, (S,S)-3-{2-[3-(Cyclopropanecarbonyl-amino)-2-oxo-2H-pyridin-1-yl]-butyrylamino}-4-oxo-5-(2,3,5,6-tetrafluoro-phenoxy)-pentanoic acid] | < 500 | 500 to 5000 | 1000 to 10000
CC[C@@H](C(=O)N[C@@H](CC(=O)O)C(=O)COc1c(F)c(F)cc(F)c1F)n1cc(C(F)(F)F)cc(NC(C)=O)c1=O [Compound 13, (S,S)-3-[2-(3-Acetylamino-2-oxo-5-trifluoromethyl-2H-pyridin-1-yl)-butyrylamino]-4-oxo-5-(2,3,5,6-tetrafluoro-phenoxy)-pentanoic acid] | < 500 | 500 to 5000 | < 1000
CC[C@@H](C(=O)N[C@@H](CC(=O)O)C(=O)COc1c(F)c(F)cc(F)c1F)n1cccc(NC(=O)c2ccccc2)c1=O [Compound 11, (S,S)-3-[2-(3-Benzoylamino-2-oxo-2H-pyridin-1-yl)-butyrylamino]-4-oxo-5-(2,3,5,6-tetrafluoro-phenoxy)-pentanoic acid] | < 500 | < 500 | < 1000
CC[C@@H](C(=O)N[C@@H](CC(=O)O)C(=O)COc1c(F)c(F)cc(F)c1F)n1cccc(NC(=O)C(C)C)c1=O [Compound 5, (S,S)-3-[2-(3-Isobutyrylamino-2-oxo-2H-pyridin-1-yl)-butyrylamino]-4-oxo-5-(2,3,5,6-tetrafluoro-phenoxy)-pentanoic acid] | < 500 | < 500 | < 1000

Further lines, with some results ahead:

IC50 (Jurkat E6.1 cells) [nM] | IC50 [1] [nM] | Structure (SMILES) | IC50 (rat cortical neurons) [nM]
< 500 | < 500 | CC[C@@H](C(=O)N[C@@H](CC(=O)O)C(=O)COc1c(F)c(F)cc(F)c1F)n1cccc(NC(=O)OC)c1=O [Compound 17, (S,S)-3-[2-(3-Methoxycarbonylamino-2-oxo-2H-pyridin-1-yl)-butyrylamino]-4-oxo-5-(2,3,5,6-tetrafluoro-phenoxy)-pentanoic acid] | < 1000
< 500 | 500 to 5000 | CCCS(=O)(=O)Nc1cccn([C@@H](CC)C(=O)N[C@@H](CC(=O)O)C(=O)COc2c(F)c(F)cc(F)c2F)c1=O [Compound 19, (S,S)-4-Oxo-3-{2-[2-oxo-3-(propane-1-sulfonylamino)-2H-pyridin-1-yl]-butyrylamino}-5-(2,3,5,6-tetrafluoro-phenoxy)-pentanoic acid] | 1000 to 10000
< 500 | 500 to 5000 | CC[C@@H](C(=O)N[C@@H](CC(=O)O)C(=O)COc1c(F)c(F)cc(F)c1F)n1cc(C(F)(F)F)cc(NS(=O)(=O)CC)c1=O [Compound 22, (S,S)-3-[2-(3-Ethanesulfonylamino-2-oxo-5-trifluoromethyl-2H-pyridin-1-yl)-butyrylamino]-4-oxo-5-(2,3,5,6-tetrafluoro-phenoxy)-pentanoic acid] | < 1000
< 500 | 500 to 5000 | CC[C@@H](C(=O)N[C@@H](CC(=O)O)C(=O)COc1c(F)c(F)cc(F)c1F)n1cccc(NS(=O)(=O)CC)c1=O [Compound 18, (S,S)-3-[2-(3-Ethanesulfonylamino-2-oxo-2H-pyridin-1-yl)-butyrylamino]-4-oxo-5-(2,3,5,6-tetrafluoro-phenoxy)-pentanoic acid] | 1000 to 10000
< 500 | < 500 | CCC(=O)Nc1cccn([C@@H](CC)C(=O)NC(CC(=O)O)C(=O)CF)c1=O (stereo partly drawn) [Compound 29, (S)-5-Fluoro-4-oxo-3-[2-(2-oxo-3-propionylamino-2H-pyridin-1-yl)-butyrylamino]-pentanoic acid] | 1000 to 10000
